These results are taken from US20060223874A1, “Heterocyclic reverse transcriptase inhibitors” (Roche Palo Alto LLC, priority 2005, published 2006).

In general, IC50 refers to the concentration that inhibits the measured activity by half. In general, melting point refers to the temperature of the solid-liquid transition.

One data set deals with Wild Type HIV-RT (Human immunodeficiency virus type 1 group M subtype B, UniProt P03366). The experiment in a line: HIV Reverse Transcriptase Assay: Inhibitor IC50 Determination. Format: biochemical. Particulars: purified recombinant HIV-1 RT, poly(rA)/oligo(dT)16 template-primer, 37° C. for 30 min. How it is done: HIV Reverse Transcriptase Assay: Inhibitor IC50 Determination
HIV-1 RT assay was carried out in 96-well Millipore MultiScreen MADVNOB50 plates using purified recombinant enzyme and a poly(rA)/oligo(dT)16 template-primer in a total volume of 50 μL. The assay constituents were 50 mM Tris/HCl, 50 mM NaCl, 1 mM EDTA, 6 mM MgCl2, 5 μM dTTP, 0.15 μCi [^3H] dTTP, 5 μg/ml poly (rA) pre annealed to 2.5 μg/ml oligo (dT)16 and a range of inhibitor concentrations in a final concentration of 10% DMSO. Reactions were initiated by adding 4 nM HIV-1 RT and after incubation at 37° C. for 30 min, they were stopped by the addition of 50 μl ice cold 20% TCA and allowed to precipitate at 4° C. for 30 min. The precipitates were collected by applying vacuum to the plate and sequentially washing with 3×200 μl of 10% TCA and 2×200 μl 70% ethanol. Finally, the plates were dried and radioactivity counted in a Packard TopCounter after the addition of 25 μl scintillation fluid per well. IC50's were calculated by plotting % inhibition versus log10 inhibitor concentrations. (TABLE 2)

Regarding `COc1ccc(Cc2n[nH]c(=O)n2C)c(F)c1Oc1cc(Cl)cc(C#N)c1` [Compound I-1, 3-chloro-5-[2-fluoro-6-methoxy-3-(4-methyl-5-oxo-4,5-dihydro-1H-[1,2,4]triazol-3-ylmethyl)-phenoxy]-benzonitrile], the melting point lay in the range of 219.1 to 220.1 °C. For the same compound, the IC50 at Wild Type HIV-RT stood at 45.6 nM.
For the compound `COc1ccc(Cc2n[nH]c(=O)n2C)c(F)c1Oc1cc(C#N)cc(C(F)F)c1` [Compound I-2, 3-Difluoromethyl-5-[2-fluoro-6-methoxy-3-(4-methyl-5-oxo-4,5-dihydro-1H-[1,2,4]triazol-3-ylmethyl)-phenoxy]-benzonitrile], the IC50 at Wild Type HIV-RT was 12.9 nM.
